Tests used:
Assay type in all cases: functional, HEK293
[1] = system: Human immunodeficiency virus 1; test: Antiviral activity against HIV1 A8 isolate with protease I84A mutation in HEK 293 cells relative to wild type
[2] = system: Human immunodeficiency virus 1; test: Antiviral activity against HIV1 A1 isolate with protease I84A mutation in HEK 293 cells relative to wild type
[3] = system: Human immunodeficiency virus 1; test: Antiviral activity against HIV1 A2 isolate with protease I84A mutation in HEK 293 cells relative to wild type
[4] = system: Human immunodeficiency virus 1; test: Antiviral activity against HIV1 A3 isolate with protease I84A mutation in HEK 293 cells relative to wild type
[5] = system: Human immunodeficiency virus 1; test: Antiviral activity against HIV1 A4 isolate with protease I84A mutation in HEK 293 cells relative to wild type
[6] = system: Human immunodeficiency virus 1; test: Antiviral activity against HIV1 A5 isolate with protease I84A mutation in HEK 293 cells relative to wild type
[7] = system: Human immunodeficiency virus 1; test: Antiviral activity against HIV1 A6 isolate with protease I84A mutation in HEK 293 cells relative to wild type
[8] = system: Human immunodeficiency virus 1; test: Antiviral activity against HIV1 A7 isolate with protease I84A mutation in HEK 293 cells relative to wild type
[9] = system: Human immunodeficiency virus 1; test: Antiviral activity against HIV1 A9 isolate with protease I84A mutation in HEK 293 cells relative to wild type
[10] = system: Human immunodeficiency virus 1; test: Antiviral activity against HIV1 A10 isolate with protease I84A mutation in HEK 293 cells relative to wild type
[11] = system: Human immunodeficiency virus 1; test: Antiviral activity against HIV1 A11 isolate with protease I84A mutation in HEK 293 cells relative to wild type
[12] = system: Human immunodeficiency virus 1; test: Antiviral activity against HIV1 A12 isolate with protease I84A mutation in HEK 293 cells relative to wild type
[13] = system: Human immunodeficiency virus 1; test: Antiviral activity against HIV1 A13 isolate with protease I84A mutation in HEK 293 cells relative to wild type
[14] = system: Human immunodeficiency virus 1; test: Antiviral activity against HIV1 A14 isolate with protease I84A mutation in HEK 293 cells relative to wild type
[15] = system: Human immunodeficiency virus 1; test: Antiviral activity against HIV1 A15 isolate with protease I84A mutation in HEK 293 cells relative to wild type
[16] = system: Human immunodeficiency virus 1; test: Antiviral activity against HIV1 C1 isolate with protease I84C mutation in HEK 293 cells relative to wild type
[17] = system: Human immunodeficiency virus 1; test: Antiviral activity against HIV1 C2 isolate with protease I84C mutation in HEK 293 cells relative to wild type
[18] = system: Human immunodeficiency virus 1; test: Antiviral activity against HIV1 C3 isolate with protease I84C mutation in HEK 293 cells relative to wild type
[19] = system: Human immunodeficiency virus 1; test: Antiviral activity against HIV1 C4 isolate with protease I84C mutation in HEK 293 cells relative to wild type
[20] = system: Human immunodeficiency virus 1; test: Antiviral activity against HIV1 C5 isolate with protease I84C mutation in HEK 293 cells relative to wild type
[21] = system: Human immunodeficiency virus 1; test: Antiviral activity against HIV1 C6 isolate with protease I84C mutation in HEK 293 cells relative to wild type
[22] = system: Human immunodeficiency virus 1; test: Antiviral activity against HIV1 C7 isolate with protease I84C mutation in HEK 293 cells relative to wild type
[23] = system: Human immunodeficiency virus 1; test: Antiviral activity against HIV1 C8 isolate with protease I84C mutation in HEK 293 cells relative to wild type
[24] = system: Human immunodeficiency virus 1; test: Antiviral activity against HIV1 C9 isolate with protease I84C mutation in HEK 293 cells relative to wild type
[25] = system: Human immunodeficiency virus 1; test: Antiviral activity against HIV1 C10 isolate with protease I84C mutation in HEK 293 cells relative to wild type
[26] = system: Human immunodeficiency virus 1; test: Antiviral activity against HIV1 C11 isolate with protease I84C mutation in HEK 293 cells relative to wild type
[27] = system: Human immunodeficiency virus 1; test: Resistance to HIV1 with protease 46I, 54V and I84V mutation in HEK 293 cells relative to similar background
[28] = system: Human immunodeficiency virus 1; test: Resistance to HIV1 with protease 46M, 54I and I84V mutation in HEK 293 cells relative to similar background
[29] = system: Human immunodeficiency virus 1; test: Resistance to HIV1 with protease 46M, 54I and I84C mutation in HEK 293 cells relative to similar background
[30] = system: Human immunodeficiency virus 1; test: Resistance to HIV1 with protease 46I, 54I and I84V mutation in HEK 293 cells relative to similar background
[31] = system: Human immunodeficiency virus 1; test: Resistance to HIV1 with protease 46I, 54I and I84A mutation in HEK 293 cells relative to similar background
[32] = system: Human immunodeficiency virus 1; test: Resistance to HIV1 with protease 46I/L, 54I and I84C mutation in HEK 293 cells relative to similar background
[33] = system: Human immunodeficiency virus 1; test: Resistance to HIV1 with protease 46I, 54M/V and I84A mutation in HEK 293 relative to similar background

Row | Structure (SMILES) | Fold change [1] | Fold change [2] | Fold change [4] | Fold change [5] | Fold change [6] | Fold change [7] | Fold change [8] | Fold change [9] | Fold change [10] | Fold change [11] | Fold change [12] | Fold change [13] | Fold change [14] | Fold change [15] | Fold change [16] | Fold change [18] | Fold change [19] | Fold change [20] | Fold change [21] | Fold change [25] | also measured
1 | CC(C)c1nc(CN(C)C(=O)N[C@H](C(=O)N[C@@H](Cc2ccccc2)C[C@H](O)[C@H](Cc2ccccc2)NC(=O)OCc2cncs2)C(C)C)cs1 [RITONAVIR] | 86 | 60 | 76 | 42 | 54 | 34 | 141 | 167 | 400 | 73 | 400 | 400 | 105 | 400 | 1.6 | 10 | 9.1 | 15 | 22 | 29 | Fold change [3]: 85; Fold change [17]: 8.6; Fold change [22]: 60; Fold change [23]: 14; Fold change [24]: 20; Fold change [26]: 15; Fold change [27]: 49; Fold change [28]: 6.7; Fold change [29]: 10; Fold change [30]: 11; Fold change [31]: 74; Fold change [32]: 18; Fold change [33]: >400
2 | CC(C)(C)NC(=O)[C@@H]1CN(Cc2cccnc2)CCN1C[C@@H](O)C[C@@H](Cc1ccccc1)C(=O)N[C@H]1c2ccccc2C[C@H]1O.O | 400 | 73 | 78 | 58 | 53 | 38 | 92 | 138 | 400 | 73 | 400 | 178 | 152 | 118 | 1.2 | 4.1 | 11 | 3.8 | 63 | 5.5 | Fold change [3]: 27; Fold change [17]: 1.3; Fold change [22]: 42; Fold change [23]: 6.4; Fold change [24]: 5.5; Fold change [26]: 5.7; Fold change [27]: 19; Fold change [28]: 2.4; Fold change [29]: 4.1; Fold change [30]: 9.1; Fold change [31]: 73; Fold change [32]: 8.6; Fold change [33]: 178
3 | COC(=O)N[C@H](C(=O)N[C@@H](Cc1ccccc1)[C@@H](O)CN(Cc1ccc(-c2ccccn2)cc1)NC(=O)[C@@H](NC(=O)OC)C(C)(C)C)C(C)(C)C [ATAZANAVIR] | – | 38 | – | – | – | – | – | 52 | 700 | 63 | 25 | 700 | 21 | 253 | – | – | – | – | – | 19 | Fold change [24]: 9.1; Fold change [26]: 5
4 | Cc1c(O)cccc1C(=O)N[C@@H](CSc1ccccc1)[C@H](O)CN1C[C@H]2CCCC[C@H]2C[C@H]1C(=O)NC(C)(C)C | 600 | 600 | 600 | 600 | 600 | 64 | 600 | 600 | 600 | 600 | 600 | 196 | 210 | 600 | 15 | 74 | 395 | 51 | 144 | 286 | Fold change [3]: 600; Fold change [17]: 59; Fold change [22]: 600; Fold change [23]: 86; Fold change [24]: 70; Fold change [26]: 91; Fold change [27]: 16; Fold change [28]: 4; Fold change [29]: 74; Fold change [30]: 9; Fold change [31]: >600; Fold change [32]: 115; Fold change [33]: >600
5 | CC(C)(C)NC(=O)[C@@H]1C[C@@H]2CCCC[C@@H]2CN1C[C@@H](O)[C@H](Cc1ccccc1)NC(=O)[C@H](CC(N)=O)NC(=O)c1ccc2ccccc2n1 | 265.5 | 1000 | 365 | 241 | 256 | 24 | 1000 | 1000 | 1000 | 1000 | 1000 | 1000 | 69 | 1000 | 6.1 | 56 | 92 | 41 | 24 | 242 | Fold change [3]: 141; Fold change [17]: 14; Fold change [22]: 1000; Fold change [23]: 68; Fold change [27]: 20; Fold change [28]: 4.3; Fold change [29]: 56; Fold change [30]: 4.3; Fold change [31]: 261; Fold change [32]: 80; Fold change [33]: >1000
6 | CC(C)CN(C[C@@H](O)[C@H](Cc1ccccc1)NC(=O)O[C@H]1CCOC1)S(=O)(=O)c1ccc(N)cc1 | 252 | 32 | 43 | 32 | 28 | 21 | 74 | 33 | 400 | 47 | 400 | 43 | 141 | 30 | 1.7 | 8.6 | 10 | 20 | 64 | 53 | Fold change [3]: 31; Fold change [17]: 5.4; Fold change [22]: 23; Fold change [23]: 12; Fold change [24]: 30; Fold change [26]: 18; Fold change [27]: 36; Fold change [28]: 4; Fold change [29]: 8.6; Fold change [30]: 9; Fold change [31]: 33; Fold change [32]: 21; Fold change [33]: 74
7 | Cc1cccc(C)c1OCC(=O)N[C@@H](Cc1ccccc1)[C@@H](O)C[C@H](Cc1ccccc1)NC(=O)[C@H](C(C)C)N1CCCNC1=O [LOPINAVIR] | 94 | 10 | 11 | 14 | 9 | 14 | 124 | 16 | 59 | 14 | 210 | 50 | 104 | 75 | 0.4 | 1.6 | 3.1 | 3.1 | 47 | 5.1 | Fold change [22]: 7.2; Fold change [23]: 2.9; Fold change [24]: 2.3; Fold change [26]: 2.8; Fold change [27]: 80; Fold change [28]: 2.8; Fold change [29]: 2.2; Fold change [30]: 8.9; Fold change [31]: 14; Fold change [32]: 3.1; Fold change [33]: 75

From ChEMBL document CHEMBL1142171, “Identification and structural characterization of I84C and I84A mutations that are associated with high-level resistance to human immunodeficiency virus protease inhibitors and impair viral replication” (2007)
